This note sets out measurements from US20260108521A1, “GSPT1 DEGRADERS, COMPOSITIONS COMPRISING THE DEGRADER, AND METHODS OF USING THE SAME” (BIOFRONT LTD, priority 2022, published 2026).

Assay [1] has as its target T1, GSPT1 protein (Homo sapiens, UniProt P15170+Q96SW2).
T1 construct: endogenous in cells; host or cells: HL-60 cells
Nature of the assay: GSPT1 degradation assay (western blot) in HL-60 cells. It counts as cell-based. Particulars: GSPT1 protein level, 2h incubation, western blot normalized to beta-Actin; for inhibition at 0.1 µM: 0.1 μM compound; for inhibition at 1 µM: 1 μM compound. The protocol:
HL-60 cells (4×10^^6 cells/well) were seeded in 6-well culture plate (Costar, 3516) and treated with a variety of concentrations of test compound. After 2h incubation, cells were collected and lysed. The protein concentration was determined by BCA protein assay kit from Thermo (23227). The GSPT1 protein level was determined by western blots, using GSPT1 polyclonal antibody. Proteins were loaded into each well of the pre-casting gels and subjected to electrophoretic separation by SDS-PAGE. The protein resolved by SDS-PAGE were transferred to PVDF, blocked by 5% skim milk and probed with anti-GSPT1 antibody (Proteintech, 10763-1-AP) or anti-β-actin antibody (CST, 3700S), using following standard western blotting procedure. Blots intensities were quantified using ImageJ software and the intensity of GSPT1 bands were normalized to beta-Actin bands, respectively. The GSPT1 degradation results were then calculated. Reported compound C84971 (see WO2021126974A1 and WO2021126973A1) was used as a reference.
On the technique in general: In western blotting, separated proteins are transferred to a membrane and probed.

Assay [2] relates to HL-60 cells. Nature of the assay: Cell viability assay (CellTiter-Glo). It counts as cell-based. Particulars: Homo sapiens, 72 h incubation, 6-point serial dilution. The procedure: HL-60 cells were seeded at a density of 7000 cells per well in 96-well culture plates (Corning 3903) with IMDM and treated with test compounds following a 6-point serial dilution. RPMI 1640 (0.1% DMSO) was used as control for each well. After 72 h incubation, cell viability was determined using the CellTiter-Glo assay kit (Promega, G9242) according to the manufacturer's instructions. The dose-response curves were determined and IC50 values were calculated using the GraphPad Prism software following a nonlinear regression method.
(In ATP-based viability assays light output follows the ATP content of the culture.)

Bounds are passed on as bounds.

T1 sequence (P15170 whole entry): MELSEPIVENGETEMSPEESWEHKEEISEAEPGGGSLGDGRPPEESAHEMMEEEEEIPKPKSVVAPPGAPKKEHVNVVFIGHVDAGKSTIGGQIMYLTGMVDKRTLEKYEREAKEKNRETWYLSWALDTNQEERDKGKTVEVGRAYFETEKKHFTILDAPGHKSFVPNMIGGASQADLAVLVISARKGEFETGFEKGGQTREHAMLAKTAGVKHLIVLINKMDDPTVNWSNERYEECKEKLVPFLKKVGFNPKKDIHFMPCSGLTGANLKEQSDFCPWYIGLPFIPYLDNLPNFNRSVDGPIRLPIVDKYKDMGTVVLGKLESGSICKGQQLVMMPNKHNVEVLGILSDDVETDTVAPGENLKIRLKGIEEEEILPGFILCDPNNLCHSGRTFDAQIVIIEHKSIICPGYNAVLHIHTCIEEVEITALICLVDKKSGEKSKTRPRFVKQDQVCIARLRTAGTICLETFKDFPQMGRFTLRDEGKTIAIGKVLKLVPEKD
T1 sequence (Q96SW2 whole entry): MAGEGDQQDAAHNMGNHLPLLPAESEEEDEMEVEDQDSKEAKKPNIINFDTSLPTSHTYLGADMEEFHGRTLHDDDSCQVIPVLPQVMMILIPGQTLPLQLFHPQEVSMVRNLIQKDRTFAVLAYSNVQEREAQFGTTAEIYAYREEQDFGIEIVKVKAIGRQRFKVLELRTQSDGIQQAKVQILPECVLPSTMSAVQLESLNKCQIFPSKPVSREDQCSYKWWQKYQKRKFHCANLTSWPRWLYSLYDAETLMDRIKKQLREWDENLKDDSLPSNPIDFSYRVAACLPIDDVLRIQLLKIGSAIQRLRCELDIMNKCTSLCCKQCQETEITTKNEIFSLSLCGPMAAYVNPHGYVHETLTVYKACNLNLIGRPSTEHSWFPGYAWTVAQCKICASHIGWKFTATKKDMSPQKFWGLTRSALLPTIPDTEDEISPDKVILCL
T1 sequence (Q16531 whole entry partner): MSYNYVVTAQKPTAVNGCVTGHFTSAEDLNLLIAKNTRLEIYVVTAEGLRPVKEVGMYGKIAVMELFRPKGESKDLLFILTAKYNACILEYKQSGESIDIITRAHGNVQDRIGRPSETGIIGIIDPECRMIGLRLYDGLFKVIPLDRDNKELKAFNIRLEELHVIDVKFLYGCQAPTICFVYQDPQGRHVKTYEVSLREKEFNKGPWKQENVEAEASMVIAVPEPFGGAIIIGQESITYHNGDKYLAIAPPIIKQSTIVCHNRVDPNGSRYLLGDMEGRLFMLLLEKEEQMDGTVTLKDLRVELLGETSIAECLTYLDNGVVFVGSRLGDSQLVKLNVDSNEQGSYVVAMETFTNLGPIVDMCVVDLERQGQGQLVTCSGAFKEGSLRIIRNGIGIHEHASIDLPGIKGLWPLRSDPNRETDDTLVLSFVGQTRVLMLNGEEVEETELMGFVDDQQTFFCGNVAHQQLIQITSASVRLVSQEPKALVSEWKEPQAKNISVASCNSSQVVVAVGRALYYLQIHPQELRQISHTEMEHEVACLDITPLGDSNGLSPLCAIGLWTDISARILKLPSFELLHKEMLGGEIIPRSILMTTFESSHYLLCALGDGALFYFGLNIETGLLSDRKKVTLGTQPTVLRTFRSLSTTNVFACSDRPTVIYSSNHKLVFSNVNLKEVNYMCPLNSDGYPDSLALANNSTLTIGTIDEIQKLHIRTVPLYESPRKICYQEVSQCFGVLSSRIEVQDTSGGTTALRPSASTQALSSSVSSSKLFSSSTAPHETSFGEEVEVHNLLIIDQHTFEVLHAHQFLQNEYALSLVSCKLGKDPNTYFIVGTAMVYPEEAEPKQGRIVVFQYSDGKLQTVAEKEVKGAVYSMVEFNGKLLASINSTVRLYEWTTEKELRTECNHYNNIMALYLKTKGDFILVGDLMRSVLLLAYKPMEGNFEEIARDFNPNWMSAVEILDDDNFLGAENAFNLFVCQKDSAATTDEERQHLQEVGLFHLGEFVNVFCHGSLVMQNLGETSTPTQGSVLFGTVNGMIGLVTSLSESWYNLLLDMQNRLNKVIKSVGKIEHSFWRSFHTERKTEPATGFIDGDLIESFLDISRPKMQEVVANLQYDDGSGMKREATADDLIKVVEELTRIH

Regarding `O=C1CCC(N2C(=O)c3ccc(N4CCC(CN5CCCN(c6ccccc6)C5=O)CC4)cc3C2=O)C(=O)N1` (centres unmarked) [Compound 1, 2-(2,6-dioxopiperidin-3-yl)-5-{4-[(2-oxo-3-phenyl-1,3-diazinan-1-yl)methyl]piperidin-1-yl}isoindole-1,3-dione], in assay [1], testing at 0.1 µM gave an inhibition of 45% and the inhibition at 1 µM came to 51%. Further, it took 1460 nM to reach half-maximal inhibition in assay [2] (IC50).
For `O=C1CCC(N2C(=O)c3ccc(N4CCC(CN5CCCN(c6cccc(-c7cnccc7Cl)c6)C5=O)CC4)cc3C2=O)C(=O)N1` (centres unmarked) [Compound 3, 5-(4-((3-(3-(4-chloropyridin-3-yl)phenyl)-2-oxotetrahydropyrimidin-1(2H)-yl)methyl)piperidin-1-yl)-2-(2,6-dioxopiperidin-3-yl)isoindoline-1,3-dione], in assay [1], testing at 0.1 µM gave an inhibition of 30% and 1 µM produced 48% inhibition. Moreover, in assay [2], the IC50 was 234 nM.
In assay [1], `O=C1CCC(N2C(=O)c3ccc(N4CCC(CN5CCCCN(c6ccccc6)C5=O)CC4)cc3C2=O)C(=O)N1` (centres unmarked) [Compound 6, 2-(2,6-dioxopiperidin-3-yl)-5-(4-((2-oxo-3-phenyl-1,3-diazepan-1-yl)methyl)piperidin-1-yl)isoindoline-1,3-dione] registered an inhibition at 0.1 µM of 46% and an inhibition at 1 µM of 52%. In assay [2], this molecule came in with an IC50 of 400 nM.
For `O=C1CCC(N2C(=O)c3ccc(N4CC(CCN5CCCN(c6cccc(-c7cnccc7Cl)c6)C5=O)C4)cc3C2=O)C(=O)N1` (centres unmarked) [Compound 8, 5-(3-(2-(3-(3-(4-chloropyridin-3-yl)phenyl)-2-oxotetrahydropyrimidin-1(2H)-yl)ethyl)azetidin-1-yl)-2-(2,6-dioxopiperidin-3-yl)isoindoline-1,3-dione], in assay [1], the inhibition at 0.1 µM worked out at 70% and the inhibition at 1 µM turned out to be 63%. For the same molecule, the IC50 in assay [2] came out at 196 nM.
On the same counts, the results for `O=C1CCC(N2C(=O)c3ccc(N4CCC(CN5CCCN(c6cccc(Br)c6)C5=O)CC4)cc3C2=O)C(=O)N1` (centres unmarked) [Compound 9, 5-(4-((3-(3-bromophenyl)-2-oxotetrahydropyrimidin-1(2H)-yl)methyl)piperidin-1-yl)-2-(2,6-dioxopiperidin-3-yl)isoindoline-1,3-dione] are 0%, 15% and more than 1000 nM.
On the same counts, the results for `O=C1CCC(N2C(=O)c3ccc(N4CC(CCN5CCCN(c6cccc(Br)c6)C5=O)C4)cc3C2=O)C(=O)N1` (centres unmarked) [Compound 10, 5-(3-(2-(3-(3-bromophenyl)-2-oxotetrahydropyrimidin-1(2H)-yl)ethyl)azetidin-1-yl)-2-(2,6-dioxopiperidin-3-yl)isoindoline-1,3-dione] are 40%, 45% and 144 nM.
For `O=C1CCC(N2C(=O)c3ccc(N4CCC(CN5CCCN(c6ccc7ncccc7c6)C5=O)CC4)cc3C2=O)C(=O)N1` (centres unmarked) [Compound 11, 2-(2,6-dioxopiperidin-3-yl)-5-(4-((2-oxo-3-(quinolin-6-yl)tetrahydropyrimidin-1(2H)-yl)methyl)piperidin-1-yl)isoindoline-1,3-dione] the same measures were 14%, less than 5% and more than 1000 nM.
In assay [1], `O=C1CCC(N2C(=O)c3ccc(N4CC(CCN5CCN(c6ccccc6)C5=O)C4)cc3C2=O)C(=O)N1` (centres unmarked) [Compound 12, 2-(2,6-dioxopiperidin-3-yl)-5-(3-(2-(2-oxo-3-phenylimidazolidin-1-yl)ethyl)azetidin-1-yl)isoindoline-1,3-dione] came in with an inhibition at 0.1 µM of 0% and an inhibition at 1 µM of 0%. This molecule gave a 50% inhibitory concentration (IC50) in assay [2] of more than 1000 nM.
Consider `O=C1CCC(N2C(=O)c3ccc(N4CCC(CN5CCCN(c6cccc(C7CC7)c6)C5=O)CC4)cc3C2=O)C(=O)N1` (centres unmarked) [Compound 15, 5-(4-((3-(3-cyclopropylphenyl)-2-oxotetrahydropyrimidin-1(2H)-yl)methyl)piperidin-1-yl)-2-(2,6-dioxopiperidin-3-yl)isoindoline-1,3-dione], for which, in assay [1], the inhibition at 0.1 µM turned out to be 30% and the inhibition at 1 µM stood at 57%. The same molecule gave an IC50 in assay [2] of 290 nM.
On the same counts, the results for `O=C1CCC(N2Cc3cc(N4CCC(CN5CCCN(c6ccccc6)C5=O)CC4)ccc3C2=O)C(=O)N1` (centres unmarked) [Compound 19, 3-(1-oxo-5-(4-((2-oxo-3-phenyltetrahydropyrimidin-1(2H)-yl)methyl)piperidin-1-yl)isoindolin-2-yl)piperidine-2,6-dione] are 15%, 38% and more than 1000 nM.
In assay [1], `O=C1CCC(N2C(=O)c3ccc(N4CC(CCN5CCCN(c6cccc(-c7cnc8c(cnn8C8CC8)c7)c6)C5=O)C4)cc3C2=O)C(=O)N1` (centres unmarked) [Compound 22, 5-(3-(2-(3-(3-(1-cyclopropyl-1H-pyrazolo[3,4-b]pyridin-5-yl)phenyl)-2-oxotetrahydropyrimidin-1(2H)-yl)ethyl)azetidin-1-yl)-2-(2,6-dioxopiperidin-3-yl)isoindoline-1,3-dione] returned an inhibition at 0.1 µM of 29% and an inhibition at 1 µM of 29%. Besides, the IC50 in assay [2] is more than 1000 nM.
Take `O=C1CCC(N2C(=O)c3ccc(N4CC(CCN5CCCN(c6cccc(-c7cnc8ccccc8c7)c6)C5=O)C4)cc3C2=O)C(=O)N1` (centres unmarked) [Compound 23, 2-(2,6-dioxopiperidin-3-yl)-5-(3-(2-(2-oxo-3-(3-(quinolin-3-yl)phenyl)tetrahydropyrimidin-1(2H)-yl)ethyl)azetidin-1-yl)isoindoline-1,3-dione]: in assay [1], the inhibition at 0.1 µM came out at 33% and the inhibition at 1 µM stood at 45%. The same molecule registered an IC50 in assay [2] of more than 1000 nM.
On the same counts, the results for `O=C1CCC(N2C(=O)c3ccc(N4CC(CCN5CCCN(c6cccc(-c7cnc8[nH]ncc8c7)c6)C5=O)C4)cc3C2=O)C(=O)N1` (centres unmarked) [Compound 25, 2-(2,6-dioxopiperidin-3-yl)-5-(3-{2-[2-oxo-3-(3-{1H-pyrazolo[3,4-b]pyridin-5-yl}phenyl)-1,3-diazinan-1-yl]ethyl}azetidin-1-yl)isoindole-1,3-dione] are 55%, 57% and 137 nM.
Regarding `CCc1c[nH]c2ccc(-c3cccc(N4CCCN(CCC5CN(c6ccc7c(c6)C(=O)N(C6CCC(=O)NC6=O)C7=O)C5)C4=O)c3)c(Cl)c12` (centres unmarked) [Compound 26, 5-(3-(2-(3-(3-(4-chloro-3-ethyl-1H-indol-5-yl)phenyl)-2-oxotetrahydropyrimidin-1(2H)-yl)ethyl)azetidin-1-yl)-2-(2,6-dioxopiperidin-3-yl)isoindoline-1,3-dione], in assay [1], the inhibition at 0.1 µM stood at 63% and testing at 1 µM gave an inhibition of 85%. For the same molecule, in assay [2], the IC50 was found to be 78 nM.
In assay [1], `CCc1c[nH]c2ccc(-c3cc(N4CCCN(CC5CCN(c6ccc7c(c6)C(=O)N(C6CCC(=O)NC6=O)C7=O)CC5)C4=O)ccn3)c(Cl)c12` (centres unmarked) [Compound 35, 5-(4-((3-(2-(4-chloro-3-ethyl-1H-indol-5-yl)pyridin-4-yl)-2-oxotetrahydropyrimidin-1(2H)-yl)methyl)piperidin-1-yl)-2-(2,6-dioxopiperidin-3-yl)isoindoline-1,3-dione] yielded an inhibition at 0.1 µM of 0% and an inhibition at 1 µM of 0%.

The term inhibition denotes the percentage by which the read-out fell short of the control. As usually defined, the IC50 is the concentration needed to halve the response being measured. Lower therefore signals greater potency.
